For test [1] the following is noted: T2DM and NAFLD patients; cited from earlier work.
In a further test the test system is miR-22. The test can be described thus: miR-22 induction by bile acids, FXR agonist and vitamin D3. As to conditions: unpublished data.
For test [2] the following is noted: FXR KO mice, depletion of BAs; cited from earlier work.
The nature of test [3]: FXR KO mice: steatohepatitis and liver cancer. The test is classed as in vivo. As to conditions: 10 months old Western diet-fed FXR KO mice; 100 mg/liter in drinking water for three months. From the text:
The treatment was started when mice were seven months old. Mice were sacrificed when they were ten months old. n>4.
FXR KO mice have increased insulin resistance accompanied by elevated BAs with increased DCA and develop liver cancer when they are about 15 months old (FIG. 24). […] In addition, FXR KO mice also had reduced Erysipelotrichaceae and Coriobacteriaceae, which have many beneficial health effects (FIG. 25A). Consistently, FXR KO mice had reduced bcoA, which generates butyrate, and increased baiJ and dsrA that generate DCA and hydrogen sulfide, respectively (FIG. 25B). Moreover, 10 months old Western diet-fed FXR KO mice developed severe steatohepatitis with massive hepatic lymphocyte infiltration, which could be eliminated by polymyxin B. This exciting finding clearly indicated the role of Gram-negative bacteria in contributing to hepatic inflammation (FIG. 26). […] Because it takes about 10-15 months for FXR KO mice to develop liver cancer, we will introduce Met/β-catenin plasmids by using sleep beauty transposon system into FXR KO mice via hydrodynamic tail vein injection to induce liver cancer. In wild type mice, these plasmids, which have been provided by Dr. Xin Chen at UCSF, can induce liver cancer within a month post-injection. In the presence of dysbiosis and dysregulated BAs, liver cancer formation is expected to be facilitated and may occur even earlier. […]

As for `CC[C@H]1[C@@H](O)[C@@H]2[C@H](CC[C@]3(C)[C@@H]([C@H](C)CCC(=O)O)CC[C@@H]23)[C@@]2(C)CC[C@@H](O)C[C@@H]12` [obetacholic acid], the “Insulin sensitivity, liver inflammation and fibrosis” value in test [1] was “improves insulin sensitivity and reduces liver inflammation as well as fibrosis”. Moreover, in the test with miR-22, the miR-22 induction entry is reported as “effective in inducing miR-22”. For cholestyramine, the Liver cancer formation entry in test [2] is “prevented liver cancer formation”.

Turning to polymyxin B, in test [3], the “Severe steatohepatitis with massive hepatic lymphocyte infiltration” value was “eliminated”.

Values taken from patent US20190307771A1, “METHODS AND COMPOSITIONS FOR THE TREATMENT OF CANCER AND METABOLIC DISEASES” (THE REGENTS OF THE UNIVERSITY OF CALIFORNIA, priority 2016, published 2019).
